Results reported in patent publication US20070031520A1, “Method of using ajoene as alcohol dehydrogenase inhibitor, composition for removing hangover comprising ajoene and method of preparing the same” (priority 2005, published 2007).

Test system: human ADH
Assay: cloned human ADH assay (NADH absorbance at 340 nm)
Format: biochemical
Conditions: for ADH inhibitory activity (%): 0.1 M glycine buffer pH 10, 2.4 mM NAD+, 33 mM ethanol
Method: ADH inhibitory activity of ajoene obtained in Example 1 was examined by means of a cloned human ADH assay wherein human ADH is treated with ajoene at different concentrations, and the results are shown in Table 1 below. Here, the ADH assay employed 0.1 M glycine buffer (pH 10) as a reaction buffer and 2.4 mM NAD^+ and 33 mM ethanol in a subtrate. ADH inhibitory activity was determined by measuring the absorbance of NADH at 340 nm using a microplate reader.

inhibitory concentration of 50% (IC50) on ADH activity (cloned human ADH, from Table 1): 0.9 µg/mL
SMILES: C=CCSSC=CC[S+]([O-])CC=C (stereo not shown) [ajoene, 4,5,9-trithiadodeca-1,6,11-triene-9-oxide]
ADH inhibitory activity (%) (ajoene 0.1 μg/ml): 0%
ADH inhibitory activity (%) (ajoene 0.9 μg/ml): 50%
ADH inhibitory activity (%) (ajoene 1 μg/ml): 60%
ADH inhibitory activity (%) (ajoene 10 μg/ml): 85%
ADH inhibitory activity (%) (ajoene 50 μg/ml): 100%
ADH inhibitory activity (%) (ajoene 100 μg/ml): 100%
